Experimental data reported in US20250108036A1, “COMPOSITIONS FOR REMOVING SENESCENT CELLS AND USES THEREOF” (LIFECEUTIX CO., LTD., priority 2021, published 2025).

Experiments:
Type in all cases: cell-based, human
A549 = assay: CellTiter-Glo cell viability of senescent A549 cancer cells (Example 12, Table 67); conditions: CellTiter-Glo; for Survival (%): doxorubicin-induced senescent A549 cancer cells; for viability at 1.1 µM / viability at 10 µM / viability at 30 µM / viability at 90 µM: Homo sapiens, A549, doxorubicin-induced senescent A549 cancer cells, read-out: Survival (%)
HMGN1 [1] = assay: HMGN1 ELISA in culture medium of foreskin cells (Examples 10, 11; Tables 62, 63, 64); conditions: doxorubicin-treated foreskin cells, DMSO = 100; for activity at 30 µM: Homo sapiens, read-out: HMGN1
senescent foreskin cells = assay: survival of senescent foreskin cells treated with medium supernatant (secreted fluid) of compound-killed cells (Example 13, Tables 68, 69); conditions: culture medium supernatant from dying senescent cells treated with compound at 30 μM, 90 μM or 270 μM; senescent foreskin cells
[2] = tested on: foreskin cells in which senescence was induced by doxorubicin; assay: CellTiter-Glo cell viability of doxorubicin-induced senescent foreskin cells (Examples 1-2, 10, 11, 13; Tables 4, 63, 65); conditions: doxorubicin-induced senescent foreskin cells, CellTiter-Glo, 0 μM = 100; for viability at 1.1 µM / viability at 10 µM / viability at 30 µM / viability at […]: Homo sapiens, 72 h, read-out: Survival (%)
HMGN1 [3] = assay: HMGN1 ELISA in culture medium of A549 cancer cells (Example 12, Table 66); conditions: ELISA, DMSO = 100; for HMGN1 (amount of HMGN1 secreted in the cell culture): doxorubicin-induced senescent A549 cells; for activity at 90 µM / activity at 30 µM: Homo sapiens, A549, doxorubicin-induced senescent A549 cells, read-out: HMGN1 (amount of HMGN1 secreted in the cell culture)

| Compound | Survival (%) (A549; 1.1 μM test compound) | Survival (%) (A549; 10 μM test compound) | Survival (%) (A549; 30 μM test compound) | HMGN1 (HMGN1 [1]; 30 μM test compound) | Survival (senescent foreskin cells) | Survival (%) ([2]; 1.1 μM test compound) | Survival (%) ([2]; 10 μM test compound) | Survival (%) ([2]; […] test compound) | HMGN1 (amount of HMGN1 secreted in the cell culture) (HMGN1 [3]; test compound 30 μM) | Survival (%) ([2]; 30 μM test compound) | Survival (%) (A549; 90 μM test compound) | viability at 1.1 µM (A549; 1.1 μM test compound) | activity at 30 µM (HMGN1 [1]; 30 μM test compound) | viability at 1.1 µM ([2]; 1.1 μM test compound) | also measured |
| --- | --- | --- | --- | --- | --- | --- | --- | --- | --- | --- | --- | --- | --- | --- | --- |
| Cc1nc(-c2nc(-c3ccc(OC(F)(F)F)cc3)no2)nn1Cc1cccc(N2CCC(S(C)(=O)=O)CC2)c1 [LX-3200] | 94.9% | 61.6% | 1.6% | 234 | 54.9 | 92.2% | 14.3% | 78.6% | 305 |  |  |  |  |  |  |
| C[N+](C)(C)CCO.C[N+](C)(C)CCO.[SH-].[SH-].[S]=[Mo]=[S] [LX-2601] | 98.6% | 59.7% | 50.7% | 263 | 67.3 | 95.2% | 58.6% | 81.8% | 193 | 21.8% |  |  |  |  |  |
| O=C(NCCCCCCCCCC[P+](c1ccccc1)(c1ccccc1)c1ccccc1)c1nn(Cc2ccc(Cl)cc2Cl)c2ccccc12.[Br-] [LX-1207] | 59.8% |  |  | 285 | 62.7 | 36.8% |  | 10% | 318 |  |  |  |  |  |  |
| [3,4,5-triacetyloxy-6-[4-[2-[(dimethylamino)methyl]prop-2-enoyl]phenoxy]oxan-2-yl]methyl acetate [LX-918] | 103.8% | 86.7% | 82.9% | 247 | 63.8 | 98.9% | 94.5% | 95.4% |  | 32.7% | 31.8% |  |  |  | HMGN1 (amount of HMGN1 secreted in the cell culture) (HMGN1 [3]; test compound 90 μM): 200 |
| CS(=O)(=O)c1ncc(Cl)c(C(=O)O)n1 [LX-917] | 101.5% | 65.7% | 17.1% | 269 | 42.5 | 101.8% | 45.8% | 93.2% |  | 4.7% | 3.5% |  |  |  | HMGN1 (amount of HMGN1 secreted in the cell culture) (HMGN1 [3]; test compound 90 μM): 223 |
| CN1CC[C@@H](Nc2cccc3c2cc(-c2noc(CNC(=O)c4cnn(C(C)(C)C)c4)n2)n3CC(F)(F)F)[C@@H](F)C1 [LX-915] | 94.7% | 86.9% | 84.9% | 297 | 53.1 | 94.7% | 72.8% | 83.2% |  | 8.5% | 6.8% |  |  |  | HMGN1 (amount of HMGN1 secreted in the cell culture) (HMGN1 [3]; test compound 90 μM): 229 |
| CN(Cc1cnc2nc(N)nc(N)c2n1)c1ccc(C(=O)N[C@@H](CCC(=O)O)C(=O)O)cc1 [LX-2901, Methotrexate, reference compound] | 89% | 90.4% | 92.3% |  | 97.5 | 103.3% | 104.8% | 97.8% |  | 93.6% | 37.2% |  |  |  | HMGN1 (HMGN1 [1]; 90 μM test compound): 167; Survival (%) ([2]; 90 μM test compound): 49.9%; HMGN1 (amount of HMGN1 secreted in the cell culture) (HMGN1 [3]; test compound 90 μM): 189 |
| CC1=C(C)C(=O)C(CCCCCCCCCC[P+](c2ccccc2)(c2ccccc2)c2ccccc2)=CC1=O.[Br-] [LX-1205] | 34.2% |  |  | 279 | 53.4 | 0.1% |  |  | 279 |  |  |  |  |  |  |
| CC(N)(Cc1ccc(O)cc1)C(=O)O (racemic) [LX-3206, Racemetyrosine, reference compound] | 92.6% | 51.9% | 5.7% | 222 | 51.9 | 95.8% | 64.7% | 96% | 215 | 21.3% |  |  |  |  |  |
| CCOC(=O)[C@@H](N)CCC(=O)N[C@@H](CSCc1ccccc1)C(=O)N[C@@H](C(=O)OCC)c1ccccc1 [LX-2602, Ezatiostat, reference compound] | 102.7% | 96% | 32.5% | 208 | 69.5 | 97.3% | 76.9% | 92.5% | 283 | 47.6% |  |  |  |  |  |
| C[Si](C)(Cc1ccc(F)cc1)CN1CCCCC1.Cl [LX-1407, Silperisone, reference compound] | 101.5% | 71.7% | 39.4% | 232 | 69.9 | 99.4% | 72.8% | 95.9% | 175 | 19.9% |  |  |  |  |  |
| C[Se](=O)O [LX-3105, Methylseleninic acid] | 84% | 69.9% | 59.3% | 195 | 69.1 | 82.1% | 41.1% | 59.5% |  | 37.7% | 39.6% |  |  |  | Survival (%) ([2]; 90 μM test compound): 4.1%; HMGN1 (amount of HMGN1 secreted in the cell culture) (HMGN1 [3]; test compound 90 μM): 202 |
| COC(=O)/C=C\C(C#N)(C#N)/N=C/c1ccc(C)cc1 [LX-920] |  |  |  |  |  |  |  |  |  |  |  | 98.4% | 278% | 100% | viability at 10 µM (A549; 10 μM test compound): 95.3%; viability at 30 µM (A549; 30 μM test compound): 93.9%; viability at 90 µM (A549; 90 μM test compound): 25.1%; viability at 10 µM ([2]; 10 μM test compound): 86.2%; viability at 30 µM ([2]; 30 μM test compound): 23.8%; viability at […] ([2]; […] test compound): 95.4%; activity at 90 µM (HMGN1 [3]; test compound 90 μM): 197% |
| CC(C)Oc1ccc(-c2ccccc2)cc1-n1c(CN2CCN(C(=O)COc3ccc(Cl)cc3)CC2)nc2ccccc2c1=O [LX-1001] |  |  |  |  |  |  |  |  |  |  |  | 95.5% | 231% | 89.9% | viability at 10 µM (A549; 10 μM test compound): 92.2%; viability at 30 µM (A549; 30 μM test compound): 71.8%; viability at 90 µM (A549; 90 μM test compound): 25.3%; viability at 10 µM ([2]; 10 μM test compound): 57.7%; viability at 30 µM ([2]; 30 μM test compound): 34.5%; viability at […] ([2]; […] test compound): 81.8%; activity at 90 µM (HMGN1 [3]; test compound 90 μM): 183% |
| CC(O)[C@]1(C)C(=O)C(C#N)=C[C@]2(C)C3=CC(=O)[C@]45OC(=O)[C@@]6(CCC(C)(C)C[C@H]64)CC[C@@]5(C)[C@]3(C)CC[C@@H]12 (stereo partly drawn) [LX-2501] |  |  |  |  |  |  |  |  |  |  |  | 14.4% | 309% | 11.1% | activity at 30 µM (HMGN1 [3]; test compound 30 μM): 333% |
| CN(C)CCn1cc(-c2ccc(F)cc2)c(-n2cccc2)n1 [LX-909] | 96.7% | 85.6% | 77.2% |  |  | 100.5% | 75.1% | 85.5% |  | 2.8% | 17.5% |  | 267% |  | activity at 90 µM (HMGN1 [3]; test compound 90 μM): 240% |
| COC(=O)C1=C(C)NC(C)=C(C(=O)OC(C)(C)CN(C)CCC(c2ccccc2)c2ccccc2)C1c1cccc([N+](=O)[O-])c1 (stereo not drawn) [LX-2801, Lercanidipine, reference compound] |  |  |  |  |  |  |  |  |  |  |  | 89.6% | 241% | 104% | viability at 10 µM (A549; 10 μM test compound): 58.6%; viability at 30 µM (A549; 30 μM test compound): 14.2%; viability at 10 µM ([2]; 10 μM test compound): 51.2%; viability at 30 µM ([2]; 30 μM test compound): 25.3%; viability at […] ([2]; […] test compound): 98.5%; activity at 30 µM (HMGN1 [3]; test compound 30 μM): 315% |
| CCNC(=O)c1c(O)c(I)c(-n2cccc2)c2sc(N(CC)CC)nc12 [LX-912] |  |  |  |  |  |  |  |  |  |  |  | 92.4% | 317% | 104% | viability at 10 µM (A549; 10 μM test compound): 83.9%; viability at 30 µM (A549; 30 μM test compound): 32.4%; viability at 90 µM (A549; 90 μM test compound): 6.7%; viability at 10 µM ([2]; 10 μM test compound): 32.7%; viability at 30 µM ([2]; 30 μM test compound): 3.1%; viability at […] ([2]; […] test compound): 85.2%; activity at 90 µM (HMGN1 [3]; test compound 90 μM): 244% |
| CC1(C)C(=O)C(C#N)=C[C@]2(C)C3=CC(=O)[C@@H]4[C@@H]5C[C@@](C)(C(=O)NCCc6c[nH]c7ccccc67)CC[C@]5(C)CC[C@@]4(C)[C@]3(C)CCC12 (stereo partly drawn) [LX-2517, Soloxolone tryptamide] |  |  |  |  |  |  |  |  |  |  |  | 8.4% | 298% | 0.6% | activity at 30 µM (HMGN1 [3]; test compound 30 μM): 318% |
